One series concerns diabetic rats. The note with it: cited from earlier work.
Series [1] can be described thus: Gravimetric vapour sorption (GVS). It counts as physicochemical. The protocol:
Gravimetric Vapour Sorption
Sorption isotherms were obtained using a Hiden Isochema moisture sorption analyser (model IGAsorp), controlled by IGAsorp Systems Software V6.50.48. The sample was maintained at a constant temperature (25° C.) by the instrument controls. The humidity was controlled by mixing streams of dry and wet nitrogen, with a total flow of 250 ml·min-1. The instrument was verified for relative humidity content by measuring three calibrated Rotronic salt solutions (10-50-88%). The weight change of the sample was monitored as a function of humidity by a microbalance (accuracy +/−0.005 mg). A defined amount of sample was placed in a tared mesh stainless steel basket under ambient conditions. A full experimental cycle consisted of three scans (sorption, desorption and sorption) at a constant temperature (25° C.) and 10% RH intervals over a 0-90% range (60 minutes for each humidity level).

In another series the target is Human KLK1 (Homo sapiens (Human), UniProt P06870). As to the kind of experiment: Determination of the IC50 for KLK1. It counts as biochemical. The note with it: 37° C., fluorogenic substrate H-DVal-Leu-Arg-AFC. The procedure:
Determination of the IC50 for KLK1
Human KLK1 (Callbiochem) was incubated at 37° C. with the fluorogenic substrate H-DVal-Leu-Arg-AFC and various concentrations of the test compound. Residual enzyme activity (initial rate of reaction) was determined by measuring the change in optical absorbance at 410 nm and the IC50 value for the test compound was determined.

Series [2] is described as follows: Storage stability at 40° C. and 75% relative humidity for 6 months. In kind it is physicochemical. The text has this: Further evidence of the suitability of the crystalline forms for pharmaceutical development is provided by the following stability data.
The target of another series is Human plasma kallikrein (Homo sapiens (Human), UniProt P03952). Briefly: Determination of the Ki for plasma kallikrein. In kind it is biochemical. The note with it: 37° C., fluorogenic substrate H-DPro-Phe-Arg-AFC; read-out: Ki (human Pkal). The procedure:
Determination of the Ki for Plasma Kallikrein
Plasma kallikrein inhibitory activity in vitro was determined using standard published methods (see e.g. Johansen et al., Int. J. Tiss. Reac. 1986, 8, 185; Shori et al., Biochem. Pharmacol., 1992, 43, 1209; Stürzebecher et al., Biol. Chem. Hoppe-Seyler, 1992, 373, 1025). Human plasma kallikrein (Protogen) was incubated at 37° C. with the fluorogenic substrate H-DPro-Phe-Arg-AFC and various concentrations of the test compound. Residual enzyme activity (initial rate of reaction) was determined by measuring the change in […] at 410 nm and the Ki value for the test compound was determined.

The subject of series [3] is CA-I stimulated RVP in Sprague Dawley rats. As to the kind of experiment: Carbonic anhydrase I induced retinal vascular permeability model. It counts as in vivo. Conditions: rat. The procedure: Carbonic Anhydrase I Induced Retinal Vascular Permeability Model
After 30 mins, a second intravitreal injection (5 μL) of PBS or CA-I (200 ng/eye) was given. After 15 minutes, 10% sodium fluorescein was infused and retinal vascular permeability (RVP) was measured by vitreous fluorophotometry 75 minutes following the initial IVT injections. […] Intravitreal injection of N—[(R)-1-[(S)-1-(4-amino methyl-benzylcarbamoyl)-2-phenyl-ethylcarbamoyl]-2-(4-ethoxy-phenyl)-ethyl]-benzamide hydrochloride reduced RVP (stimulated by CA-I injection) by 53±21%.

Another series concerns the target Factor Xa (Homo sapiens (Human), UniProt P00742). As to the kind of experiment: Determination of enzyme selectivity: Factor Xa. In kind it is biochemical. Conditions: substrate at Km concentration. The text has this: (§1) Determination of Enzyme Selectivity
Another series deals with Factor XIIa (Homo sapiens (Human), UniProt P00748). Briefly: Determination of enzyme selectivity: Factor XIIa. In kind it is biochemical. The note with it: substrate at Km concentration.
Sequence of Factor XIIa (P00748 373-615): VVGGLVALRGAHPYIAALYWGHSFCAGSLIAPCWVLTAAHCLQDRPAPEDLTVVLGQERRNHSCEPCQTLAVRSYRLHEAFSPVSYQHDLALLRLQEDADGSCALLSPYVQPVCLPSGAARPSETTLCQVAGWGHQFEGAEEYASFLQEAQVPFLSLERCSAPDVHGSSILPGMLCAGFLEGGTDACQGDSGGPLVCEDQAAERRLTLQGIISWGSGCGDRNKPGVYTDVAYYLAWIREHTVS
Excerpt: as §1

In another series the target is thrombin (Homo sapiens (Human), UniProt P00734). Briefly: Determination of enzyme selectivity: thrombin. It counts as biochemical. The note with it: substrate at Km concentration.
Excerpt: as §1

A short description of series [4]: Ocular and systemic pharmacokinetics following a single IVT dose. The note with it: Dutch-belted rabbits. In kind it is in vivo, rabbit. The protocol: A pharmacokinetic study of N—[(R)-1-[(S)-1-(4-aminomethyl-benzylcarbamoyl)-2-phenyl-ethylcarbamoyl]-2-(4-ethoxy-phenyl)-ethyl]-benzamide hydrochloride was performed to assess the ocular and systemic pharmacokinetics following a single IVT dose in pigmented (Dutch-belted) rabbits. […] Serial blood samples were collected in surviving rabbits.

Counter-ions that a name gives are not always drawn.

Sequence of Human KLK1 (P06870 25-262): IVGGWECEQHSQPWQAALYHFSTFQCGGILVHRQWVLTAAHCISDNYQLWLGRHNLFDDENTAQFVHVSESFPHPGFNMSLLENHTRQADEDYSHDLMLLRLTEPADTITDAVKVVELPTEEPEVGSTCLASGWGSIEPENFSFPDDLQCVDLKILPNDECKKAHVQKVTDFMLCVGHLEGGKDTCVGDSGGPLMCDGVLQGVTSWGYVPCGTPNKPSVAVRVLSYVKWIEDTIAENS
Sequence of Human plasma kallikrein (P03952 391-638): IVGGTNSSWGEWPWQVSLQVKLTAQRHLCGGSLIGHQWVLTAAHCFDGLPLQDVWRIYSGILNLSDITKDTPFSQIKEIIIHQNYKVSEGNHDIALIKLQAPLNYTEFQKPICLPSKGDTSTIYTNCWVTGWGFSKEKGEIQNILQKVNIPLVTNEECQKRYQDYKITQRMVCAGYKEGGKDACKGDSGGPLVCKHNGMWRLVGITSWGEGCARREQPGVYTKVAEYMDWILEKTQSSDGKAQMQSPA
Sequence of Human plasma kallikrein (P03952 20-390 partner): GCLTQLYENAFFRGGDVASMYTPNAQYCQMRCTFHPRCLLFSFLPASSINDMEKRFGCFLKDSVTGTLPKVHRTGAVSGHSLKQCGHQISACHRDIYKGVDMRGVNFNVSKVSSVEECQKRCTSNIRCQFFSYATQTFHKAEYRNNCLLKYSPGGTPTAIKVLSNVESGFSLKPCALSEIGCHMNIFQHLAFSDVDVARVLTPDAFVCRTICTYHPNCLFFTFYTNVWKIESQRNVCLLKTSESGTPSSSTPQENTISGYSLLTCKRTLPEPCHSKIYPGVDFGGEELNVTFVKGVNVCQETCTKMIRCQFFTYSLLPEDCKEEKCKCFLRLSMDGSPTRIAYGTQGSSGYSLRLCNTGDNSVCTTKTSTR
Sequence of Factor Xa (P00742 235-488): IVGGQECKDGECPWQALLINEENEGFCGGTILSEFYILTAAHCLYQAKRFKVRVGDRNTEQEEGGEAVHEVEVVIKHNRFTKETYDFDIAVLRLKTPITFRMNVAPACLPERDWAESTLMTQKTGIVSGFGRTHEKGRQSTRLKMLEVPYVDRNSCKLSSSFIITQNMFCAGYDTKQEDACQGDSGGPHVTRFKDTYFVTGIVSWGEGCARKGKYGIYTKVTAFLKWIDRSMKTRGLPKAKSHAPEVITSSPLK
Sequence of Factor Xa (P00742 41-179 partner): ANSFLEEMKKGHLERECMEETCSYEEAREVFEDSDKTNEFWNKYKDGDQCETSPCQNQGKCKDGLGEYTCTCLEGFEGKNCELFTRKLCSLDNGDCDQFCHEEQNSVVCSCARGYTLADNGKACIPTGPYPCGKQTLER

For `N=C(N)c1ccc(CNC(=O)c2cnn(Cc3ccccc3)c2)cc1` [ASP-440], the “retinal vascular permeability and retinal blood flow abnormalities” value with diabetic rats is on record as “ameliorated”.

Take `CCOc1ccc(C[C@@H](NC(=O)c2ccccc2)C(=O)N[C@@H](Cc2ccccc2)C(=O)NCc2ccc(CN)cc2)cc1` [Form 1, N—[(R)-1-[(S)-1-(4-aminomethyl-benzylcarbamoyl)-2-phenyl-ethylcarbamoyl]-2-(4-ethoxy-phenyl)-ethyl]-benzamide hydrochloride]: the “hydration (GVS)” value in series [1] (25° C., sorption, desorption and sorption, 0-90% RH) is listed as “reversible”. For the same compound, in series [1] (GVS data), the hygroscopicity result is recorded as “absence of significant hygroscopicity”. In addition, in series [1] (normal conditions, 20% to 80% relative humidity), the “increase in water content (GVS)” value is reported as “only a relatively gradual increase”. The same compound gave a half-inhibitory concentration (IC50) against Human KLK1 of more than 10 µM. Also, in series [2] (6 months), the “chemical degradation on storage” value was “no significant chemical degradation” and the “purity (HPLC) on storage” value worked out at 99.8 % area. Also, the “change to the XRPD diffractogram on storage” value in series [2] (6 months, double polyethylene bags in polypropylene container) is recorded as “no change”. For the same compound, in [2] (after one month and thereafter up to 6 months), the “water content (Karl Fischer) on storage” value is reported as 2.5%-2.8%. Also, the Ki on Human plasma kallikrein came to 0.01 µM.

For `CCOc1ccc(C[C@@H](NC(=O)c2ccccc2)C(=O)N[C@@H](Cc2ccccc2)C(=O)NCc2ccc(CN)cc2)cc1` [N—[(R)-1-[(S)-1-(4-aminomethyl-benzylcarbamoyl)-2-phenyl-ethylcarbamoyl]-2-(4-ethoxy-phenyl)-ethyl]-benzamide hydrochloride], the “reduction of RVP stimulated by CA-I injection” value in series [3] (intravitreal injection 5 μL of 1 μM, CA-I 200 ng/eye after 30 mins) was 53±21%. For the same compound, the “basal RVP” value in series [3] (intravitreal injection of 1 μM alone (no CA-I), no effect compared to PBS alone, vitreous fluorophotometry at 75 minutes) was determined as 3.29±0.21. The half-inhibitory concentration (IC50) against Factor Xa is more than 10 µM; against Factor XIIa, more than 10 µM; on thrombin, more than 40 µM. Moreover, the “decline in ocular tissue concentrations” value in [4] (single IVT 210 ng per eye, vitreous, retina/choroid, aqueous humour, over 7 days) is given as “minimal”. For the same compound, in series [4] (single bilateral IVT 210 ng per eye, all time points), the “plasma concentrations following IVT administration” value was “below 1 ng/mL”.

In general, IC50 refers to the concentration that gives 50% inhibition. A higher IC50 goes with lower potency. Broadly, the Ki is the dissociation constant of the complex between target and ligand, obtained from inhibition or displacement.

(Values after patent US9512065B2, “Polymorphs of N-[(R)-1-[(S)-1-(4-aminomethyl-benzylcarbamoyl)-2-phenyl-ethylcarbamoyl]-2-(4-ethoxy-phenyl)-ethyl]-benzamide hydrochloride” (Kalvista Pharmaceuticals Limited, priority 2012, dated 2016).)
